“Also recorded” adds a separate entry of the source.

Series [1] deals with NSC-34 cells transfected with FUS R495X, TDP-43 A315T or SOD1 G93A. Briefly: Ratio of pre-miRNA to miRNA levels in NSC-34 cells transfected with ALS-causing mutants. In kind it is cell-based. Particulars: CHX 0.02 μg/ml, 72 hrs.
Text: Ratio of pre-miRNA to miRNA expression levels in NSC-34 cells, transfected with plasmids that drive the expression of FUS R459X (FIG. 10A), TDP-43 A315T (FIG. 10B) or SOD1 G93A (FIG. 10C), relative to control plasmid transfection. […] Average of 3 independent experiments, except for pre-miRs in FUS R495X (n=2).
RNA was extracted using Tri reagent (Molecular Research Center Inc.) or Qiazol with consecutive use of the miRNeasy Mini Kit (Qiagen). Pre-miRNA and miRNA reverse transcription was performed using miScript Kits No. I & II (Qiagen). Quantitative analysis of miRNA and pre-miRNA expression performed in more than 3 independent biological repeats and additionally in technical duplicates with StepOnePlus quantitative Real-Time PCR System and 2-sided ANOVA-test performed with DataAssist Software (Life technologies Inc.). […]
The test system of series [2] is interaction of Ago2 with Dicer and eIF3L. Nature of the series: Targeted mass spectrometry of Ago2 interactions in FUS R495X-expressing cells. Type of series: cell-based. The note with it: Cycloheximide 0.02 μg/ml, 72 hrs. On the procedure: (FIG. 9A) The ratio of pre-miRNA to mature miRNA levels in NSC-34 cells, transfected with plasmids as indicated and in cells treated for 72 hrs with carrier alone (water, black) or with cycloheximide (CHX, 0.02 μg/ml, gray). Data normalized to control plasmid transfection. Pre-miRNAs further normalized to Gapdh (for FUS R495X, TDP-43 A315T) or to beta-actin (SOD1 G93A) and miRNA levels normalized to Snord68. Average of three independent experiments except for pre-miRNAs in the study of FUS R495X (n=2). Targeted quantitative mass spectrometry analysis of changes in the binding of Ago2 or Dicer to a set of proteins interactors under stress (FIGS. 9B-E). Immunoprecipitated Ago2-Flag (FIG. 9B) or Dicer-Flag (FIG. 9C) from HEK 293 cells, cultured under basal conditions or treated with sodium arsenite (0.5 mM, 60 min) was subjected to targeted mass-spectrometry analysis. Data is averaged from two or three different peptide standards per protein and normalized to the levels of co-immunoprecipiated peptides from untreated cells. Statistically significant result in a student t-test, between arsenite and control treatment is denoted (*p<0.05). Targeted mass spectrometry of (FIG. 9D) Dicer cofactors or (FIG. 9E) SG components, immunoprecipitated with AGO-Flag in FUS R495X-expressing HEK 293 that were further treated for 72 hrs with carrier alone or Cycloheximide (0.02 μg/ml). […]

In series [3] the test system is TDP-43 A315T mouse model of ALS.
Experimental: 200 mg/kg-bodyweight/day (n=9) or carrier (water; n=8) to TDP-43 A315T mutant female mice started at day 42 of the mouse life. (FIG. 13A) Onset of symptoms (neurological score 1); 2-way ANOVA p=0.0013. […] Error bars, s.d.
Animals were group-housed on a 12 hour light-dark cycle. Food and water was provided ad libitum. […] RotaRod™ performance (San Diego Instruments) was evaluated at ramp speed 4, 40 rpm. Data was presented as the average latency to fall off the rotarod of three independent rounds per time point, and was normalized to average initial performance at pre-symptomatic stage for each individual for each time point. A fully automated gait analysis with the Catwalk XT™ (Noldus) system was performed. Data was obtained of more than 4 independent rounds on the apparatus. For Hangwire muscle strength assessment, mice were allowed forelimb grip onto a 2-mm thick horizontal metal wire, suspended 80 cm above surface. Ability to successfully raise hindlimbs to grip the wire and crawling to the end of the wire was scored: 1=Successful four-paw grip and crawling to the end of the wire within less than 60 seconds. 2=Four-paw grip for more than 15 seconds without crawling. 3=Failure to successfully establish hindlimb grip in 60 seconds. 4=Inability to sustain forelimb grip for 60 seconds. Each mouse was evaluated in 2 sessions on 2 consecutive days, consisting of 3 trials each, with a 15 minute inter-trial interval. […] 1=collapse or partial leg collapse towards midline or hind leg trembling during tail suspension. 2=toes curl under at least twice during a 12 inch walk, or any part of foot is dragging along cage/table bottom. 3=rigid paralysis or minimal joint movement, foot not being used for forward motion. 4=humane endpoint, mouse cannot right itself within 30 seconds on either side. The locomotion of animals was quantified over a period of 46 hrs in the home cage, by automated sensing of body-heat image using an InfraMot (TSE-Systems). Individual animal movements were summed up every 30 minutes. Animal statistics: Homecage locomotion was analyzed using the 2-sided Student's t-test. Rotarod performance was evaluated using the 2-way ANOVA with repeated measures for each individual. Weight peak, weight decline, onset of symptoms and survival were calculated with GraphPad Prism 6 using the Logrank (Mantel-Cox) test. All other tests employed 2-way ANOVA.
A further series has as its system frontal cortex of rats. The note with it: cited from earlier work.
Series [4] has as its system HEK293 cells transfected with ALS-causing mutant SOD1 G93A. Briefly: miRNA and pre-miRNA expression (qPCR) in HEK293 cells transfected with SOD1 G93A. In kind it is cell-based. The note with it: 100 μM Enoxacin. On the procedure: Data normalized to miRNA levels in cultures that were transfected with GFP and treated with Doxycyclin and to the expression of the small RNAs 5S. Pre-miRNA expression normalized to beta-actin. […] For miRNA studies in cultured cells, reverse transcription for consecutive parallel analysis of pre-miRNA and miRNA expression was performed using miScript I & II Kits (Quiagen). Quantitative analysis of miRNA and pre-miRNA expression performed with StepOnePlus Real-Time PCR System (Life technologies Inc.). All experiments were performed in at least 3 independent biological repeats and qPCR performed in technical duplicates.
(In general: Quantitative PCR measures a nucleic acid by following its amplification.)

Series [5] has as its system HEK293 cells transfected with ALS-causing mutants TDP-43 A315T or FUS 495X. Nature of the series: miRNA and pre-miRNA expression (qPCR) in HEK293 cells transfected with ALS-causing TDP-43 or FUS mutants. In kind it is cell-based. The note with it: 100 μM Enoxacin. The source says:
Depicted are bar-graph representations of relative miRNA expression levels in cells, transfected with GFP and treated with Doxycyclin, compared to the expression of the small RNAs U6 or 5S, on a log2 scale. […] Data normalized to miRNA levels in cultures that were transfected with GFP and treated with Doxycyclin and to the expression of the small RNAs U6 or 5S. Pre-miRNA expression normalized to beta-actin. […] For miRNA studies in cultured cells, reverse transcription for consecutive parallel analysis of pre-miRNA and miRNA expression was performed using miScript I & II Kits (Quiagen). Quantitative analysis of miRNA and pre-miRNA expression performed with StepOnePlus Real-Time PCR System (Life technologies Inc.). All experiments were performed in at least 3 independent biological repeats and qPCR performed in technical duplicates. The present inventors reasoned that Dicing of pre-miRNAs is inhibited by the expression of ALS-causing versions of TDP-43 or FUS and thus searched for changes in mRNA encoding for miRNA-processing factors in gene expression and splicing data from the same patients^9. […] Thus, impaired miRNA bioprocessing in ALS may be reversible by a non-toxic Fluoroquinolone.

Series [6] concerns SOD1 G93A mouse model of ALS. Nature of the series: In vivo Enoxacin study of neuromuscular function in SOD1 G93A mice. On the procedure:
800 mg/kg-bodyweight/day (n=40) or carrier (water; n=37) to SOD1 G93A male mice started day 42 of the mouse life. […] 200 mg/kg-bodyweight/day or carrier (water) to SOD1 G93A male mice started day 42 of the mouse life. […] Error bars, s.d.
Food and water was provided ad libitum. […] All other tests employed 2-way ANOVA.
To further evaluate motor function an automated quantitative gait analysis was performed using the CatWalk system [Neumann et al. (2009) J Neurosci Methods 176(1): 34-44].

The conditions of series [7]: humans; single Enoxacin of 600 mg; cited from earlier work.
The conditions of series [8]: cited from earlier work.
The test system of series [9] is SOD1 G93A mouse model of ALS. Nature of the series: miRNA expression in lumbar spinal cords of SOD1 G93A mice (qPCR). The note with it: oral, 800 mg/kg body weight per day for 48 days.
Experimental: Multiple time-point analysis of miRNA expression in the lumbar spinal cords (L4, L5) of SOD1 G93A mutant mice relative to wild-type sibling controls (3 spinal cords per group). (FIG. 11A) qPCR analysis of miRNAs normalized to average of snoRNA202 and snoRNA234. (FIG. 11B) Levels of mRNA encoding for protein components of the Dicer complex were measured and normalized to the expression of Gapdh. […] (FIG. 11D) Levels of mRNA encoding for protein components of the Dicer complex were measured and normalized to the expression of Gapdh. 2-way ANOVA-testing with significant p-values indicated by *p<0.05, **p<0.01, ***p<0.001. Error bars, s.d.
A short description of series [10]: Enoxacin pharmacokinetics and efficacy in CF-1 mice (literature). In kind it is in vivo, mouse. The note with it: 100 mg/kg orally in drinking water per day.
The test system of the next series is SOD1 G93A mice. Nature of the series: Preliminary Enoxacin study in SOD1 G93A mice (from age of 50 days in drinking water). Type of series: in vivo, mouse. On the procedure: For in vivo experiments, transgenic SOD1 (superoxide dismutase 1) mice were used which express a G93A mutant form of human SOD1. […] Mouse life span and neuromuscular function were monitored. Neuromuscular function was assessed by neurological score that tests the mouse muscle tonus reflexes and overall in-cage locomotive activity as previously described in […] et al. [[…] et al., Brain Res. (2011) Jun. 7; 1394:90-104]. Hang-wire test was utilized which measures gross physical strength of forelimbs, hindlimbs, capacity to adduct when hand on a pole and to walk. Automated Catwalk gait analysis system was utilized which is based on camera monitored computerized locomotion testing automated system by Noldus Information Technology, The Netherlands.

Setting [11] is: oral 800 mg/kg-bodyweight/day from day 42.
[12] abbreviates: 200 mg/kg in drinking water from the age of 50 days.

`C[C@@H]1C[C@@H]([C@H](O)CC2CC(=O)NC(=O)C2)C(=O)[C@@H](C)C1` [cycloheximide]: the “Dicer complex activity (ratio of pre-miRNA to mature miRNA)” value in series [1] is recorded as “prevented the reduction in Dicer complex activity”. For the same compound, the “mutant-induced interaction of Ago2 with Dicer and eIF3L” value in series [2] is “reduced mutant-induced interaction of Ago2 with Dicer and eIF3L”.
As to `CCn1cc(C(=O)O)c(=O)c2cc(F)c(N3CCNCC3)nc21` [Enoxacin], in series [3] (200 mg/kg-bodyweight/day), the “Rotarod performance up to day 120” value is listed as “stable performance up to day 120 of life” and the “gross strength (hangwire assay)” value was “improved”. Also, the “average stride length (Catwalk)” value in series [3] (200 mg/kg-bodyweight/day, day 83) is “longer”. Also, the Rotarod test entry in series [3] (oral 200 mg/kg-bodyweight/day from day 42) is given as “performed better than the untreated control group”. For the same compound, in series [3] (oral 200 mg/kg-bodyweight/day from day 42, female mice), the neurological score entry was “better than that of untreated controls”. Further, in the series with frontal cortex of rats, the “expression of miRNAs in the frontal cortex” value was “increase the expression of miRNAs” and the impact on depression result was “beneficial impact”. In series [4], the “mature miRNA expression” value is listed as “recovers the downregulation of mature miRNA expression” and the pre-miRNA levels entry is listed as “reverses pre-miRNA upregulation”. In addition, in series [5], the “mature miRNA expression” value is “reversed the negative impact of ALS-causing TDP-43 or FUS mutants on miRNA maturation; also recorded: recovers the downregulation of mature miRNA expression” and the pre-miRNA levels entry is recorded as “reverses pre-miRNA upregulation”. The “gross strength (hangwire assay)” value in series [6] (200 mg/kg-bodyweight/day) is on record as “significant improvement in gross strength”. Further, the “homecage locomotion (InfraMot)” value in [6] (200 mg/kg-bodyweight/day, 46 hrs, day 129-130) is “moved significantly more than untreated controls”. The Rotarod performance result in series [6] (200 mg/kg-bodyweight/day, day 120, normalized to day 50) is reported as “beneficial impact; also recorded: stable performance at day 120”. For the same compound, in series [6] (800 mg/kg-bodyweight/day, day 73), the “swing speed (CatWalk gait analysis)” value is “significantly higher”. Further, the “stride length (CatWalk gait analysis)” value in series [6] (800 mg/kg-bodyweight/day, day 80) was “significantly increased”. Also, the Rotarod performance result in series [6] (800 mg/kg-bodyweight/day, normalized to day 92) is “significantly improved performance”. In series [6] (setting [11]), the “delay at the onset of neurological symptoms (neurological score 1)” value was “about 7 days”, the “neurological status (neurological score)” value is listed as “superior to untreated controls”, the “onset of weight decline (loss of 1 gram body weight after the weight peak)” value was “delayed” and the weight peak entry is recorded as “delayed”. Moreover, in series [6] (oral 800 mg/kg-bodyweight/day from day 42, 800 mg/kg), the “survival / lifespan (Kaplan-Meier)” value is “no significant differences; also recorded: did not extend the lifespan”. Also, in series [7], the plasma peak concentration is 3.7 µg/mL. In [8] (100 mg/kg orally in drinking water per day), the activity in mice entry is “active”. Also, in series [8] (mice, 100 mg/kg orally in drinking water per day), the “mean serum peak concentrations” value was 4 mg/L. In [8] (mouse, in vivo), the toxicity in mice result is “non-toxic”. In series [9], the “mRNA levels of Ago2, Dicer, PACT and TRBP” value is on record as “remained unchanged”. Also, the “miRNA levels in lumbar spinal cords” value in series [9] (from day 42, harvest day 90) was “compensated”. In addition, the “serum peak concentration expressed in molar terms” value in series [10] was determined as 12.5 µM. In addition, in the series with SOD1 G93A mice (setting [12]), the “gross strength in a hang-wire test” value was “beneficial impact”, the neurological score result is given as “beneficial impact”, the overall lifespan entry is given as “marginal effect” and the “overall locomotive function in a computerized cat-walk assay” value is “beneficial impact”. Further, the “deterioration in mouse neuromuscular function” value in the series with SOD1 G93A mice (neurological score, hang-wire test, automated cat-walk study) was “slower”.

The values are drawn from patent US10159670B2, “Methods of diagnosing and treating motor neuron diseases and other cellular stress-related diseases” (priority 2012, dated 2018).
